Experimental data from patent publication US9499612B2, “Antigen binding constructs” (Glaxo Group Limited, priority 2011, dated 2016).

Legend:
[1] = tested on: VEGF165 induced proliferation of human umbilical vein endothelial cells; assay: Human Umbilical Cord Endothelial Cell (HUVEC) proliferation assay; type: cell-based
Method: The assay measures the extent of endothelial cell proliferation induced by a defined concentration of VEGF165 and the ability of VEGF antagonists to block this effect. HUVECs were seeded at 5000 cells per well in 96-well gelatine-coated plates, leaving outer wells free of cells, and incubated for several hours to permit adherence. Test molecules were assayed at equimolar concentrations (max 3.33×10^−08 M) with a 2-fold serial dilution, each in triplicate. The VEGF165 was prepared in basal medium to achieve 75 ng/ml final concentration. Medium was removed manually from the cell monolayers and 50 μl basal media was added to prevent the cells from drying out. […] Cells were incubated for 72 hrs, after which time the total number of cells was determined using Cell Titre Glo. […]
(§1) PRISM™ using a Sigmodial curve fit, variable slope cf a non-linear regression (variable slope). […] Estimates of the curve maxima and the standard error were analysed using a weighted mixed model analysis of variance, using 1/(standard error)^2, [SE]^2, as a weighting. […]
as §1

[2] = tested on: human VEGF165 induced blood-retinal breakdown; assay: VEGF induced blood-retinal breakdown: rabbit retinal leakage model; type: in vivo; settings: for % reduction vs vehicle: Table 4B
Method: The high (H) and low (L) doses were based upon a molar equivalent dosing to Ranibizumab ([…] ™). The low dose, (L), was one third of the high dose.
In brief, all molecules were buffer exchanged using PD-10 Desalting Columns (GE Healthcare) into 10 mM Histidine HCl, 10% α-αtrehalose dehydrate, 0.01% PolySorbate 80, pH 5.5, and concentrated to the desired concentration using VIVASPIN™ 20, molecular weight cut off 5000 Da, spin concentrations (Sartorius Stedim Biotech), both were used according to manufacturer's instructions.
Ninety-eight (98) GD79B pigmented rabbits were randomly divided into nine (9) groups of ten (10) animals and one (1) group of eight (8) animals (used for KENACORT™ control). Each group was subdivided into 2 groups corresponding to 2 experimental sets. Test items, reference or control items were administered by intravitreal injection (IVT, 50 μL) into the right eyes on Day-7. Left eyes remained untreated and served as a negative control. On Day 0, right eyes were induced for blood retinal barrier (BRB) breakdown with a single intravitreal injection of 500 ng rhVEGF165 (vascular permeability inducer). Sodium fluorescein was intravenously injected to all groups 47 h after the VEGF challenge (Day 2). Within 10 min after the injection of the tracer a retinal angiography was performed on right eye and pictures were taken. Ocular fluorescein contents in the vitreoretinal compartment were measured 1 h later using non-invasive scanning ocular fluorophotometry. A right eye/left eye fluorescein content (AUC) Rt ratio was determined for retinal permeability evaluation. At the end of the evaluation period (Day 2), animals were euthanized and right eyes of all animals were enucleated. […] Fluorescein angiograms were collected for qualitative assessment.
One hundred and forty (140) HY79B pigmented rabbits were randomly divided into eleven (11) groups of twelve (12) animals and one (1) group of eight animals, each group was sub-divided into 4 experimental sets of 3 animals, bar the KENACORT™ treated group, (4 sets of 2 animals), (see Table 15A).

[3] = dose H, VEGF induced retinal leakage

Compound | inhibition of HUVEC proliferation ([1]; Example 8, 75 ng/ml VEGF165, 72 hrs) | inhibition of VEGF driven HUVEC proliferation ([1]; Example 18) | % reduction vs vehicle [2, 3] | % reduction vs vehicle ([2]; low dose (L)) | % reduction vs vehicle ([2]; 2 000 μg/eye) | % reduction ([2]; Table 15B (ii), 2 000 ug/eye)
Bevacizumab [AVASTIN ™, reference compound] | ~100% | ~100% | 75% | – | – | –
Ranibizumab [LUCENTIS ™, reference compound] | – | – | 82% | 78% | – | –
C[C@]12C=CC(=O)C=C1CC[C@H]1[C@@H]3C[C@@H](O)[C@](O)(C(=O)CO)[C@@]3(C)C[C@H](O)[C@@]12F [KENACORT ™, Triamcinalone, reference compound] | – | – | – | – | 85% | 80%
